According to US20250152606A1, “INDUCTION OF IRREVERSIBLE INFERTILITY IN FEMALE MAMMALIAN ANIMALS USING A SINGLE PROGESTERONE IMPLANT” (THE BOARD OF TRUSTEES OF THE UNIVERSITY OF ILLINOIS, priority 2022, published 2025):
Entries after “also recorded” stand apart in the source; their conditions may differ. Read-outs that look alike come from different tables or passages of the source.

Key:
uterine glands = conditions: cited from earlier work
[1] = Serum P4 in neonatal rats after P4 treatment (P4-specific ELISA); assay type: in vivo; conditions: repeated daily injections of P4 (Oil-P4 group)
Procedure: FIG. 2. Pharmacokinetics of progesterone treatment in neonatal rats. Three-day-old rats were treated with 2.0 mg P4 Silastic capsule, (n=5-7), injected daily with 0.5 mg P4 for 7 days (n=5-9), or vehicle (n=5-9).
(§1) Experiments with Silastic capsules. Neonatal female rats (3-day-old [D3]) were divided into 3 groups for the treatment (Chart 1). The Control group was subcutaneously (sc) injected with sesame oil daily for 7-days. The Oil-P4 group was injected sc with progesterone (P4) (0.5 mg P4/50 μl oil) daily for 7-days. The sC-P4 group was implanted sc with a given single P4 Silastic capsule (sC-P4) (2 mg P4/5 μl oil in a Silastic capsule having dimensions: ID 1.02 mm, OD 2.16 mm, Length 8 mm). Sera were collected by tail clipping (n=5-7) on days 6, 10, 14 and 24, and serum P4 was measured by P4-specific ELISA kit (EIA5486, DRG International Inc., NJ). Uterine histology was examined in weeks 7 and 28. Collected uterine tissues were fixed in 4% paraformaldehyde. Tissues were washed with ethanol, processed, and embedded in paraffin wax. Paraffin-embedded tissue blocks were cut into 6 μm thick sections. For general histological observation, slides were stained with hematoxylin and eosin (HE staining). The number of uterine glands was counted from HE-stained uterine tissue sections (n=2-4). At 5-months-old, the estrous cycle was monitored for 10 days by vaginal cytology (n=2-4). […]

female rats = assay: Fertility test with fertility-proven male rats; assay type: in vivo; conditions: neonatally treated rats tested at 5 months
Procedure: Neonatal P4 Silastic capsule implant induces permanent infertility. Starting at 5-months of age, the estrous cycle was determined by microscopy of vaginal smears for 10 days (Table 1). […] After the estrous cycle observation, female rats were caged with fertility-proven male rats for 1 month to evaluate fertility. Seventy-five percent (¾) of the Control untreated and Oil-P4 groups were fertile, averaging 12 and 13 pups, respectively. By comparison, none of the sC-P4 was fertile.
as §1, with “Collected uterine tissues were fixed in 4% paraformaldehyde. Tissues were washed with ethanol, processed, and embedded in paraffin wax. Paraffin-embedded tissue blocks were cut into 6 μm thick sections. For general histological observation, slides were stained with hematoxylin and eosin (HE staining).” left out

uterine gland = conditions: repetitive injections of neonatal ewe lambs; oviduct, cervix, vagina not inhibited; cited from earlier work

SMILES	adenogenesis at PND 10 (uterine glands; mice treated with P4 during PND 3-5 or 7-9)	adenogenesis at PND 10 (uterine glands; mice treated with P4 during PND 3-9, 5-9, or 3-7)	uterine glands in adulthood (uterine glands; mice treated with P4 during PND 3-9)	uterine gland development on PND 20 (uterine glands; mice treated with P4 during PND 5-9 or 3-7)	maximum increase in serum P4 levels compared to the Control ([1]; 6 days after the start of injections) [fold]	time serum P4 remained significantly elevated ([1]; experimental day 16) [days]	fertility outcome (female rats)	adenogenesis (uterine gland)
CC(=O)[C@H]1CC[C@H]2[C@@H]3CCC4=CC(=O)CC[C@]4(C)[C@H]3CC[C@]12C [P4, progesterone]	not	abolished adenogenesis	lacked glands in adulthood; also recorded: lack uterine glands in adulthood	resumption of uterine gland development	2	10	insufficient to achieve infertility	–
CC(=O)O[C@]1(C(C)=O)CC[C@H]2[C@@H]3CCC4=CC(=O)CC[C@@H]4[C@H]3[C@@H](C)C[C@@]21C [norgestomet]	–	–	–	–	–	–	–	irreversibly inhibits adenogenesis
